# Experimental data published in US20140249135A1, “PIM KINASE INHIBITORS AND METHODS OF THEIR USE” (NOVARTIS AG, priority 2007, published 2014).
# Where two headings read alike, the source gives them in different places.
# Assays:
# Type in all cases: biochemical
# Pim3 kinase = Pim3 kinase (Homo sapiens, UniProt Q86V86); experiment: Pim3 ATP depletion assay
# Pim1 kinase = Pim1 kinase (Homo sapiens, UniProt P11309); experiment: Pim1 ATP depletion assay; settings: Pim1 ATP depletion assay;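 also: Luciferase-luciferin luminescence readout of residual ATP after PIM1 transfers phosphate to a peptide substrate, 40 µM ATP added, reaction run to roughly half ATP consumption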
# Chain of Pim1 kinase (P11309 whole entry): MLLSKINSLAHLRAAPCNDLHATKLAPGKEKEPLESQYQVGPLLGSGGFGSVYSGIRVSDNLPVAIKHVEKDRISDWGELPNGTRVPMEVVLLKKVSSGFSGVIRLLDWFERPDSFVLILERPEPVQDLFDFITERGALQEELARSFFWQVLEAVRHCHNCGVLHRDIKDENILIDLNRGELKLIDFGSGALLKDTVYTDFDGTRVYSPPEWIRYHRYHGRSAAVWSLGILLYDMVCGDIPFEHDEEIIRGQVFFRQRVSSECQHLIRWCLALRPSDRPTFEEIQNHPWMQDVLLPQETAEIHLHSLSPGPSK
# Pim2 kinase = Pim2 kinase (Homo sapiens, UniProt Q9P1W9); experiment: Pim2 ATP depletion assay;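 also: Luciferase-based luminescent readout of ATP remaining after PIM2 phosphorylates a BAD peptide, final 5 nM enzyme, 4 µM ATP, 10 µM peptide, 2.5% DMSO, run to roughly half ATP consumption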
# Chain of Pim2 kinase (Q9P1W9 whole entry): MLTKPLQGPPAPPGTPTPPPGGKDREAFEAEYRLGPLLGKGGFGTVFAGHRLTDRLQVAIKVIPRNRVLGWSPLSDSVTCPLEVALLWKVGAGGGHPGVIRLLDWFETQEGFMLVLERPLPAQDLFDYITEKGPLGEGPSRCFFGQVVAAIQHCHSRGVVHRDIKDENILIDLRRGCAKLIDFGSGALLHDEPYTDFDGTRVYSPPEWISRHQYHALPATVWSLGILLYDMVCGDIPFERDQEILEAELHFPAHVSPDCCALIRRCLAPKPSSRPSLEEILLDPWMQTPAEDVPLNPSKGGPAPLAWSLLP
IC50 (Pim3 kinase; read-out: PIM3 IC50) [µM],IC50 (Pim1 kinase; read-out: PIM1 IC50) [µM],IC50 (Pim2 kinase; read-out: PIM2 IC50) [µM],IC50 (Pim3 kinase; read-out: IC50 (μM) PIM3) [µM],IC50 (Pim1 kinase; read-out: IC50 (μM) PIM1) [µM],IC50 (Pim2 kinase; read-out: IC50 (μM) PIM2) [µM],SMILES
< 1,< 1,< 1,–,–,–,"Nc1ccc(-c2cccc(Cl)n2)nc1C(=O)Nc1cnccc1N1CCC[C@H](N)C1 [Example 710, 5-Amino-6′-chloro-[2,2′]bi-pyridinyl-6-carboxylic acid (3-amino-3,4,5,6-tetrahydro-2H-[1,4′]bipyridinyl-3′-yl)-amide]"
< 1,< 1,< 1,–,–,–,"Cc1ccnc(-c2nc(C(=O)Nc3cnccc3N3CCC[C@H](N)C3)c(N)cc2F)c1F [Example 737, 5-Amino-3,3′-difluoro-4′-methyl-[2,2′]bipyridinyl-6-carboxylic acid (3-amino-3,4,5,6-tetrahydro-2H-[1,4′]bi-pyridinyl-3′-yl)-amide]"
< 1,< 1,< 1,–,–,–,"Nc1ccc(-c2ncc(Cl)cc2Cl)nc1C(=O)Nc1cnccc1N1CCC[C@H](N)C1 [Example 700, 5-Amino-3′,5′-dichloro-[2,2′]bi-pyridinyl-6-carboxylic acid (3-amino-3,4,5,6-tetrahydro-2H-[1,4′]bipyridinyl-3′-yl)-amide]"

# The next lines start with the compound.
SMILES,IC50 (Pim3 kinase; read-out: PIM3 IC50) [µM],IC50 (Pim1 kinase; read-out: PIM1 IC50) [µM],IC50 (Pim2 kinase; read-out: PIM2 IC50) [µM],IC50 (Pim3 kinase; read-out: IC50 (μM) PIM3) [µM],IC50 (Pim1 kinase; read-out: IC50 (μM) PIM1) [µM],IC50 (Pim2 kinase; read-out: IC50 (μM) PIM2) [µM]
"Nc1ccc(-c2ccccc2F)nc1C(=O)Nc1cnccc1N1CCC[C@H](O)C1 [Example 660, 3-Amino-6-(2-fluoro-phenyl)-pyridine-2-carboxylic acid (3-hydroxy-3,4,5,6-tetrahydro-2H-[1,4′]bipyridinyl-3′-yl)-amide]",< 1,< 1,< 1,–,–,–
"CSc1ccc(-c2ccc(N)c(C(=O)Nc3cnccc3N3CCC[C@H](N)C3)n2)nc1 [Example 699, 5-Amino-5′-methylsulfanyl-[2,2′]bipyridinyl-6-carboxylic acid (3-amino-3,4,5,6-tetra-hydro-2H-[1,4′]bipyridinyl-3′-yl)-amide]",< 1,< 1,< 1,–,–,–
"Cc1cc(F)c(-c2ccc(N)c(C(=O)Nc3cnccc3N3CCC[C@H](N)C3)n2)cc1Cl [Example 478, 3-Amino-6-(5-chloro-2-fluoro-4-methyl-phenyl)-pyridine-2-carboxylic acid (3-amino-3,4,5,6-tetrahydro-2H-[1,4′]bipyridinyl-3′-yl)-amide]",–,–,–,< 1,< 1,< 1
"Cc1ccc(S(=O)(=O)N2CCCCC2)cc1-c1ccc(N)c(C(=O)Nc2cnccc2N2CCC[C@H](N)C2)n1 [Example 318, 3-amino-6-[2-methyl-5-(piperidine-1-sulfonyl)-phenyl]-pyridine-2-carboxylic acid ((S)-3-amino-3,4,5,6-tetrahydro-2H-[1,4′]bi-pyridinyl-3′-yl)-amide]",–,–,–,< 1,< 1,< 1
"Cc1nc(N)ncc1-c1ccc(N)c(C(=O)Nc2cnccc2N2CCC[C@H](N)C2)n1 [Example 409, 3-amino-6-(2-amino-4-methyl-pyrimidin-5-yl)-pyridine-2-carboxylic acid ((S)-3-amino-3,4,5,6-tetrahydro-2H-[1,4′]bi-pyridinyl-3′-yl)-amide]",–,–,–,< 1,< 1,< 1
"CC(C)COc1cncc(-c2nc(C(=O)Nc3cnccc3N3CCC[C@H](N)C3)c(N)cc2F)n1 [Example 741, 3Amino-5-fluoro-6-(6-isobutoxy-pyrazin-2-yl)-pyridine-2-carboxylic acid (3-amino-3,4,5,6-tetrahydro-2H-[1,4′]bipyridinyl-3′-yl)-amide]",< 1,< 1,< 1,–,–,–
"COC1CCN(c2ccncc2NC(=O)c2nc(-c3c(F)cccc3F)ccc2N)CC1N (stereo not drawn) [Example 301, 3-Amino-6-(2,6-difluoro-phenyl)-pyridine-2-carboxylic acid (3-amino-4-methoxy-3,4,5,6-tetrahydro-2H-[1,4′]bi-pyridinyl-3′-yl)-amide]",–,–,–,< 1,< 1,< 1
